In ChEMBL document CHEMBL4138264, “Seco-Dendrobine-Type Alkaloids and Bioactive Phenolics from Dendrobium findlayanum” (J Nat Prod, 2018):
Calls of active or inactive are those of the source. No cut-off for these calls is given here. Peptide text beside a SMILES is read from it. * marks the point of attachment. Cbz = O=C(OCc1ccccc1)*

Experiments:
[1] = system: HL-60; assay: Cytotoxicity against human HL60 cells assessed as reduction in cell viability after 48 hrs by MTS assay; assay type: functional, cell-based; conditions: HL-60, 48 h
[2] = system: SMMC-7721; assay: Cytotoxicity against human SMMC7721 cells assessed as reduction in cell viability after 48 hrs by MTS assay; assay type: functional, cell-based; conditions: SMMC-7721, 48 h
[3] = system: A549; assay: Cytotoxicity against human A549 cells assessed as reduction in cell viability after 48 hrs by MTS assay; assay type: functional, cell-based; conditions: A549, 48 h
[4] = system: MCF7; assay: Cytotoxicity against human MCF7 cells assessed as reduction in cell viability after 48 hrs by MTS assay; assay type: functional, cell-based; conditions: MCF7, 48 h
[5] = system: SW480; assay: Cytotoxicity against human SW480 cells assessed as reduction in cell viability after 48 hrs by MTS assay; assay type: functional, cell-based; conditions: SW480, 48 h
[6] = system: RAW264.7; assay: Antiinflammatory activity in mouse RAW264.7 cells assessed as reduction in LPS-induced NO production at 25 uM preincubated for 1 hr followed by LPS stimulation measured after 18 hrs by Griess assay; assay type: functional, cell-based
[7] = system: RAW264.7; assay: Antiinflammatory activity in mouse RAW264.7 cells assessed as reduction in LPS-induced NO production preincubated for 1 hr followed by LPS stimulation measured after 18 hrs by Griess assay; assay type: functional, cell-based
[8] = system: RAW264.7; assay: Antiinflammatory activity in mouse RAW264.7 cells assessed as reduction in LPS-induced NO production at 25 ug/ml preincubated for 1 hr followed by LPS stimulation measured after 18 hrs by DAF-FMDA probe based flow cytometry; assay type: functional, cell-based
[9] = Antioxidant activity assessed as DPPH radical scavenging activity at 50 uM after 1 hr; assay type: functional
[10] = system: RAW264.7; assay: Inhibition of LPS-stimulated ROS production in mouse RAW264.7 cells at 25 ug/ml preincubated for 1 hr followed by LPS stimulation measured after 18 hrs by DCFH-DA probe based flow cytometry; assay type: functional, cell-based
[11] = Antioxidant activity assessed as DPPH radical scavenging activity at 25 ug/ml after 1 hr; assay type: functional

| Structure (SMILES) | IC50 [1] | IC50 [2] | IC50 [3] | IC50 [4] | IC50 [5] | Activity [6] | IC50 [7] | Activity [8] | Activity [9] | inhibition [10] | Activity [11] |
| --- | --- | --- | --- | --- | --- | --- | --- | --- | --- | --- | --- |
| COC(=O)/C(=C(/C(=O)O)C(C)C)[C@@H]1CC[C@@H]2CN(C)C(=O)[C@@]21C | > 40 µM | > 40 µM | > 40 µM | > 40 µM | > 40 µM | inactive | – | – | – | – | – |
| CC(C)[C@@H]1[C@@H]([C@@H]2CC[C@@H]3CN(C)C(=O)[C@@]32C)C(=O)O[C@H]1O | > 40 µM | > 40 µM | > 40 µM | > 40 µM | > 40 µM | inactive | – | – | – | – | – |
| COc1cc(CCc2ccc(O)cc2)cc(O)c1-c1c(OC)cc([C@@H]2OO[C@H]2CO)cc1OC | 23.5 µM | 34.4 µM | 20.8 µM | 19.4 µM | > 40 µM | – | 21.4 µM | inactive | 37.6% | Active | – |
| CC(C)C[C@@H](C=O)NC(=O)[C@H](CC(C)C)NC(=O)[C@H](CC(C)C)NC(=O)OCc1ccccc1 [MG-132] (Cbz-Leu-Leu-Leu-aldehyde) | – | – | – | – | – | – | 0.2 µM | – | – | – | – |
| COc1ccc(CCc2cc(OC)c(O[C@H](CO)[C@@H](O)c3ccc(O)c(OC)c3)c(OC)c2)cc1 | > 40 µM | > 40 µM | > 40 µM | > 40 µM | > 40 µM | inactive | – | – | 27.6% | Active | – |
| CC(C)[C@@H]1[C@H]2OC(=O)[C@@H]1[C@@H]1CC[C@@H]3CN(C)[C@H]2[C@@]31C | > 40 µM | > 40 µM | > 40 µM | > 40 µM | > 40 µM | inactive | – | – | – | – | – |
| COc1ccc(CCc2cc(O)c(-c3c(OC)cc([C@@H]4OO[C@H]4CO)cc3OC)c(OC)c2)cc1 | 2.3 µM | 5.1 µM | 4.4 µM | 4.7 µM | 5.3 µM | inactive | – | – | 18.1% | Active | – |
| CC(C)[C@H]1[C@@H]2C(=O)O[C@H]1[C@@]1(O)N(C)C[C@H]3CC[C@@H]2[C@]31C | > 40 µM | > 40 µM | > 40 µM | > 40 µM | > 40 µM | inactive | – | – | – | – | – |
| COc1ccc(CCc2cc(OC)c3c(c2)O[C@@H](c2ccc(O)c(OC)c2)[C@H](CO)O3)cc1 | > 40 µM | > 40 µM | > 40 µM | > 40 µM | > 40 µM | inactive | – | – | 9.56% | inactive | – |
| CC(C)C1=C(O)C(=O)[C@@]2(C)[C@@H]3CC[C@H]2[C@H]1C(=O)NC3 | > 40 µM | > 40 µM | > 40 µM | > 40 µM | > 40 µM | inactive | – | – | – | – | – |
| Cc1c(C)c2c(c(C)c1O)CCC(C)(C(=O)O)O2 (stereo unspecified) | – | – | – | – | – | – | – | – | – | – | 95.5% |
| CC(=O)O[C@H]1C(=O)[C@@]2(C)[C@H]([C@H](OC(=O)c3ccccc3)[C@]3(O)C[C@H](OC(=O)[C@H](O)[C@@H](NC(=O)c4ccccc4)c4ccccc4)C(C)=C1C3(C)C)[C@]1(OC(C)=O)CO[C@@H]1C[C@@H]2O [PACLITAXEL] | < 0.008 µM | < 0.008 µM | < 0.008 µM | < 0.008 µM | < 0.008 µM | – | – | – | – | – | – |
| CC(C)C1=C(O)C(=O)[C@@]2(C)[C@@H]3CC[C@H]2[C@H]1C(=O)N(C)C3 | > 40 µM | > 40 µM | > 40 µM | > 40 µM | > 40 µM | inactive | – | – | – | – | – |
